Bridge positions count the residues as written; N and C are the ends. Ends that are not written are not given here.
Experiments:
[1] = system: allogeneic skin graft rejection; assay: Murine skin transplantation (tail skin allograft onto bm1 recipients); format: in vivo, mouse
From the text: Tail skin from C57BL/7 [H-2b] donor is grafted onto the ventral side of bm1 recipient tails. The donors are asphyxiated and 2×4 mm tail pieces are cut. These grafts are placed in 0.1% BSA in PBS on ice. Recipients are anesthetized in isoflurane chamber. While still anesthetized, grafting beds of 10×10 mm on the ventral side of the tail are cut. Two grafting beds per mouse are made, one for syngeneic graft and the other for the allogeneic graft. The grafts are turned 180' and placed in the beds such that the hair of the graft grows in the opposite direction. The grafts are trimmed if necessary such that they fit in the beds without skin hanging over the edge of the beds. A blunt glass tube is placed over the grafts and taped into place. This glass is removed on day 2 post-transplantation.
Five animals per treatment group are used and treatment is prior to transplantation. The untreated group is injected into the tail vein with 200 μl of PBS on Day 0.
Grafts are observed every other day for signs of rejection. […] Grafts are considered rejected due to mechanical failure if the grafts are rejected by Day 3.

[2] = system: cytotoxic T-cell mediated lympholysis of 51Cr labelled EL-4 (H-2b) targets; assay: 4 hour 51Cr release assay: inhibition of cytotoxic T-cell mediated lympholysis by peptide; format: cell-based, mouse (AKR/J anti C57BL/6 effectors); details: for inhibition of specific lysis of targets: peptide 100, 10 or 1 μg/ml pre-incubated 30 minutes at 37° C. with effectors, Effector:Target 30:1, 10:1, 3:1, 1:1, 4 hour lysis
Procedure: The effect of peptide on cytotoxicity was measured in a 4 hour ^51 Cr release assay. H-2^b specific effectors were generated in a AKR/J (H-2^k) anti C57BL/6 (H-2^b) mixed lymphocyte reaction. The stimulators (C57BL/6 spleen cells) are gamma-irradiated at 1500 RADS. The targets were obtained from a tumor cell line, EL-4 (H-2^b), that were labelled with Na^51 CrO4. On Day 5 the effectors are harvested and counted. The peptide, at concentrations of 100 μg/ml, 10 μg/ml or 1 μg/ml, was first incubated for 30 minutes at 37° C. with effectors of varying numbers and then ^51 Cr labelled targets were added in a 4 hour specific lysis experiment. The target cell lysis was assessed at Effector:Target ratios of 30:1, 10:1, 3:1, and 1:1. Toxic effects of the peptide was determined by the % specific lysis above background that was obtained by incubating just peptide and labelled targets. No toxic effects were observed. Also, anti-CD8 monoclonal antibody that blocks the interaction resulting in lowered lympholysis is used in the assay.

[3] = system: activation of CTL in AKR/J anti C57BL/6 mixed lymphocyte reaction; assay: Inhibition of activation/generation of cytotoxic T-cells: mixed lymphocyte reaction in presence of peptide, then 51Cr release; format: cell-based, mouse; details: peptide present during MLR; effectors washed on Day-6; 4-hour lysis of EL-4 targets
Procedure: The effect of the peptide on the activation of CTL capable of lympholysis was determined by generating effector T-cells in AKR/J anti C57BL/6 mixed lymphocyte reaction in the presence of peptide. On Day-6, effectors are washed and then ^51 Cr-labelled EL-4 targets were added in a 4-hour specific lysis experiment.

[4] = system: GVHD, primarily CD8+ based; assay: Murine model of GVHD (B10.BR ATBM plus CD8+ T-cells into lethally irradiated host); format: in vivo, mouse; details: 0.5 mgs peptide on Day 0, 3 and 6; FIG. 2
Procedure: Donor bone marrow is harvested from tibias and femurs of B10.BR mice. T-cells are eliminated from the bone marrow by treatment with anti-Thy1.2 and complement. Complement treatment for 2 cycles at 37° C. for 1 hour each results in more than 90% pure population of bone marrow cells. 10×10^6 T-cell depleted bone marrow [ATBM] cells are injected into the tail vein. Donor splenocytes undergo red blood cell lysis followed by B cell and CD4+ T-cells are depletion using anti-J1J and anti-RL147 antibodies, respectively. This purified CD8+ T-cell population from donors (5×10^6 cells) is injected into the tail vein of the animal. The host is lethally irradiated at 850 cGy approximately 6 hours prior to bone marrow transplantation. Characteristic features of murine acute GVHD include weight loss, diarrhea and loss of hair and death. Body weights were monitored before and after treatment. The treated mice were housed in sterile conditions and observed daily for acute GVHD-like reactions. Lethally irradiated mice reconstituted with ATBM only survive without signs of disease. Mice are treated with 0.5 mgs of SC2 peptide on Day 0, 3 and 6.

Substance | inhibition of specific lysis of targets [2] | inhibition of specific lysis of targets (effectors generated in presence of peptide) [3] | other results
Wu-2: linear peptide consisting of human CD8 amino acids 37-47 (CQPRGAAASPC) |  |  | rejection of skin grafts ([1]; skin transplantation assay of Example 4, FIG. 4): significant delay in rejection
C-D-E-K-L-N-S-S-K-L-C (CDEKLNSSKLC; not fully specified; printed as C-D-E-K-L-N-S-S-K-L-C; cysteine pairing not given here) [SC11] | does not | show inhibition of specific lysis of targets in a concentration dependent manner | 
CLSQNKPC (disulfide 1-8 (inferred)) [Wu-1, cyclic peptide consisting of human CD8 amino acids 52-57 with amino terminal and carboxy terminal cysteines] |  |  | inhibition of killing ([2]; 51[Cr]-release assay as described in Example 2, FIG. 3): approximately 50%
C-S-S-H-N-K-P-C (CSSHNKPC) [SC2] | inhibits specific lysis of targets in a concentration dependent manner | show inhibition of specific lysis of targets in a concentration dependent manner | onset of GVHD [4]: delays the onset of GVHD; skin graft survival ([1]; 0.5 mgs/200 μl PBS in the tail vein on Day 0, FIG. 1): consistently prolonged skin graft survival with biological significance

— US6180600A, “CD8 antagonists” (Thomas Jefferson University, priority 1997, dated 2001)
